Data taken from ChEMBL document CHEMBL1138459 (Bioorg Med Chem Lett, 2009).
The source made the active and inactive calls. The calls are words filed in the database; no cut-off is given here.

Key:
[1] = Total clearance in rat; format: ADME, organism-based; details: in vivo
[2] = Total clearance in cynomolgus monkey; format: ADME, organism-based, Macaca fascicularis; details: in vivo
[3] = Bioavailability in rat; format: ADME, organism-based; details: in vivo
[4] = Bioavailability in cynomolgus monkey; format: ADME, organism-based, Macaca fascicularis; details: in vivo
[5] = Half life in rat; format: ADME, organism-based; details: in vivo
[6] = Half life in cynomolgus monkey; format: ADME, organism-based, Macaca fascicularis; details: in vivo
Mus musculus [7] = assay: Antidiabetic activity in overnight fasted db/db mouse diabetic model assessed as reduction in blood glucose level at 0.3 mg/kg/day, po chronically for 12 days challenged with glucose 24 hrs post last dose by OGTT; format: functional, organism-based
Mus musculus [8] = assay: Antidiabetic activity in db/db mouse diabetic model assessed as reduction in post prandial blood glucose level at 0.3 mg/kg/day; format: functional, organism-based
Mus musculus [9] = assay: Antidiabetic activity in overnight fasted db/db mouse diabetic model assessed as reduction in blood glucose level at 3 mg/kg/day, po chronically for 12 days challenged with glucose 24 hrs post last dose by OGTT; format: functional, organism-based
Mus musculus [10] = assay: Antidiabetic activity in db/db mouse diabetic model assessed as reduction in post prandial blood glucose level at 3 mg/kg/day; format: functional, organism-based
Rattus norvegicus [11] = assay: Antidiabetic activity in Zucker fa/fa rat assessed as glucose infusion rate at 1 mg/kg/day after 7 days by hyperinsulinemic-euglycemic clamp study; format: functional, organism-based
Rattus norvegicus [12] = assay: Antidiabetic activity in Zucker fa/fa rat assessed as HOMA-insulin resistance index at 1 mg/kg/day; format: functional, organism-based
Rattus norvegicus [13] = assay: Antidiabetic activity in Zucker fa/fa rat assessed as fasting plasma insulin level at 1 mg/kg/day; format: functional
Mus musculus [14] = assay: Increase in plasma HDLC level in human ApoA1 transgenic mouse model at 0.3 mg/kg/day after 12 days by FPLC method; format: functional, organism-based
Mus musculus [15] = assay: Increase in plasma HDLC level in human ApoA1 transgenic mouse model at 3 mg/kg/day after 12 days by FPLC method; format: functional, organism-based
[16] = biological target: T1, Peroxisome proliferator-activated receptor alpha (Homo sapiens, UniProt Q07869)
T1 sequence (Q07869 whole entry): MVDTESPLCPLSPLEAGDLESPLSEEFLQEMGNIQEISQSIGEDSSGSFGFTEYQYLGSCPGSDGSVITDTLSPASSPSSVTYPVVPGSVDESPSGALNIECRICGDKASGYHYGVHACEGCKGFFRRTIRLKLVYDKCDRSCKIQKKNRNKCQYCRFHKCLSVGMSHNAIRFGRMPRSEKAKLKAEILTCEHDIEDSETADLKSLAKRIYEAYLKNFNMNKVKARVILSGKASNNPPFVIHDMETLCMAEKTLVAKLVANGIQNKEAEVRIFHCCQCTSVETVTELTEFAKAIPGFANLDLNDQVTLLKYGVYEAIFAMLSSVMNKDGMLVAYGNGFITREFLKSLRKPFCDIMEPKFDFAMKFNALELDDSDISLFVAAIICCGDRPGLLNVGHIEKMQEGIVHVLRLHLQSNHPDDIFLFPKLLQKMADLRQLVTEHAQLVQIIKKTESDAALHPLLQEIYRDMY

[17] = biological target: T1, Peroxisome proliferator-activated receptor alpha; assay: biochemical
[18] = biological target: T2, Peroxisome proliferator-activated receptor delta (Homo sapiens, UniProt Q03181)
T2 sequence (Q03181 whole entry): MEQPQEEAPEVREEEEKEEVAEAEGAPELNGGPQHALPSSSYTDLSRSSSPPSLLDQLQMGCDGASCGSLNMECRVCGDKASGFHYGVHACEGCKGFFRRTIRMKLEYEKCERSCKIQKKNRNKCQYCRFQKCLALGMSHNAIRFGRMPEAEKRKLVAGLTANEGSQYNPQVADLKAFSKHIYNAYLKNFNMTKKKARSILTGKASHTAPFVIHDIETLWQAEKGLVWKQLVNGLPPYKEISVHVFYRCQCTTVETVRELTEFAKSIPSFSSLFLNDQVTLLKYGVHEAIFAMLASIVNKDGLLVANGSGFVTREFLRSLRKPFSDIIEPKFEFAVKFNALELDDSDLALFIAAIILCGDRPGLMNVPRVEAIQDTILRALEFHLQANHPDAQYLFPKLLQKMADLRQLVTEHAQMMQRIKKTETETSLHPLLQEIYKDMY

Rattus norvegicus [19] = assay: Antidiabetic activity in Zucker fa/fa rat assessed as glucose infusion rate at 3 mg/kg/day after 7 days by hyperinsulinemic-euglycemic clamp study; format: functional, organism-based
Rattus norvegicus [20] = assay: Antidiabetic activity in Zucker fa/fa rat assessed as HOMA-insulin resistance index at 3 mg/kg/day; format: functional, organism-based
Mus musculus [21] = assay: Increase in plasma HDLC level in human ApoA1 transgenic mouse model at 300 mg/kg/day after 12 days by FPLC method; format: functional, organism-based
Rattus norvegicus [22] = assay: Antidiabetic activity in Zucker fa/fa rat assessed as glucose infusion rate at 10 mg/kg/day after 7 days by hyperinsulinemic-euglycemic clamp study; format: functional, organism-based
Rattus norvegicus [23] = assay: Antidiabetic activity in Zucker fa/fa rat assessed as HOMA-insulin resistance index at 10 mg/kg/day; format: functional, organism-based
Rattus norvegicus [24] = assay: Antidiabetic activity in Zucker fa/fa rat assessed as fasting plasma insulin level at 10 mg/kg/day; format: functional
Mus musculus [25] = assay: Increase in plasma HDLC level in human ApoA1 transgenic mouse model at 10 mg/kg/day after 12 days by FPLC method; format: functional, organism-based

CO[C@@H](Cc1ccc(OCCc2nc(-c3ccccc3)oc2C)c2ccsc12)C(=O)O [ALEGLITAZAR]
clearance [1]: 6.2 mL/min/kg
clearance [2]: 1.6 mL/min/kg
bioavailability [3]: 70%
bioavailability [4]: 68%
half-life [5]: 4 h
half-life [6]: 12.9 h
Activity (Mus musculus [7]): Active
Activity (Mus musculus [8]): Active
Activity (Mus musculus [9]): Active
Activity (Mus musculus [10]): Active
Activity (Rattus norvegicus [11]): Active
Activity (Rattus norvegicus [12]): Active
Activity (Rattus norvegicus [13]): 773 ng/mL
Activity (Mus musculus [14]): Active
Activity (Mus musculus [15]): Active

CCCCCCOC(Cc1ccc(OCCc2nc(-c3ccccc3)oc2C)c2ccsc12)C(=O)O (racemic)
EC50 [16]: 249 nM
IC50 [17]: 120 nM

CCO[C@@H](Cc1ccc(OCCc2nc(-c3ccc(-c4ccccc4)cc3)oc2C)c2ccsc12)C(=O)O
EC50 [16]: 167 nM
IC50 [17]: 194 nM

CO[C@@H](Cc1ccc(OCCc2nc(-c3ccccc3)oc2C)c2sccc12)C(=O)O
EC50 [16]: 157 nM
EC50 [18]: 137 nM
IC50 [17]: 28 nM

CCO[C@@H](Cc1ccc(OCCc2nc(-c3ccccc3)oc2C)c2sccc12)C(=O)O
EC50 [16]: 58 nM
IC50 [17]: 333 nM

CCCOC(Cc1ccc(OCCc2nc(-c3ccccc3)oc2C)c2ccccc12)C(=O)O (racemic)
EC50 [16]: 87 nM
IC50 [17]: 69 nM

CCO[C@@H](Cc1ccc(OCCc2nc(-c3ccc(C(F)(F)F)cc3)oc2C)c2ccsc12)C(=O)O
EC50 [16]: 89 nM
IC50 [17]: 63 nM

Cc1oc(-c2ccccc2)nc1CCOc1ccc(C[C@H](OCC(F)(F)F)C(=O)O)c2sccc12
EC50 [16]: 555 nM
IC50 [17]: 60 nM

Cc1oc(-c2ccccc2)nc1CCOc1ccc(CC(OCC(C)C)C(=O)O)c2sccc12 (racemic)
EC50 [16]: 48 nM
IC50 [17]: 239 nM

CO[C@@H](Cc1ccc(OCCc2nc(-c3ccc(C(F)(F)F)cc3)oc2C)c2ccsc12)C(=O)O
EC50 [16]: 2 nM
IC50 [17]: 53 nM

CN(CCOc1ccc(CC2SC(=O)NC2=O)cc1)c1ccccn1 (stereo not given)
Activity (Mus musculus [8]): Active
Activity (Mus musculus [10]): Active
Activity (Rattus norvegicus [19]): Active
Activity (Rattus norvegicus [20]): Active

CCO[C@@H](Cc1ccc(OCCc2nc(-c3ccccc3)oc2C)c2ccccc12)C(=O)O
EC50 [16]: 11 nM
EC50 [18]: 169 nM
IC50 [17]: 198 nM

COC(Cc1ccc(OCCc2nc(-c3ccccc3C)oc2C)c2ccccc12)C(=O)O (racemic)
EC50 [16]: 123 nM
IC50 [17]: 432 nM

Cc1oc(-c2ccccc2)nc1CCOc1ccc(C[C@H](OCC2CC2)C(=O)O)c2sccc12
EC50 [16]: 27 nM
IC50 [17]: 21 nM

CC(C)(Oc1ccc(C(=O)c2ccc(Cl)cc2)cc1)C(=O)O [FENOFIBRIC ACID]
Activity (Mus musculus [21]): Active
EC50 [16]: 69000 nM
IC50 [17]: 106000 nM

CC(=O)c1ccccc1N[C@@H](Cc1ccc(OCCc2nc(-c3ccccc3)oc2C)cc1)C(=O)O
Activity (Rattus norvegicus [22]): Active
Activity (Rattus norvegicus [23]): Active
Activity (Rattus norvegicus [24]): 776 ng/mL
Activity (Mus musculus [25]): inactive
EC50 [16]: 284 nM
IC50 [17]: 633 nM

CCO[C@@H](Cc1ccc(OCCc2nc(-c3ccc(C(F)(F)F)cc3)oc2C)c2ccccc12)C(=O)O
EC50 [16]: 11 nM
IC50 [17]: 905 nM

CO[C@@H](Cc1ccc(OCCc2nc(-c3ccc(C(C)C)cc3)oc2C)c2ccsc12)C(=O)O
EC50 [16]: 20 nM
IC50 [17]: 45 nM

COc1cc(OC)cc(-c2nc(CCOc3ccc(C[C@H](OC)C(=O)O)c4sccc34)c(C)o2)c1
EC50 [16]: 61 nM
EC50 [18]: 678 nM
IC50 [17]: 48 nM

Cc1oc(-c2ccc(-c3ccccc3)cc2)nc1CCOc1ccc(C[C@H](OCC(F)(F)F)C(=O)O)c2ccccc12
EC50 [16]: 987 nM
IC50 [17]: 429 nM

Cc1oc(-c2ccc(C(C)C)cc2)nc1CCOc1ccc(C[C@H](OCC2CC2)C(=O)O)c2sccc12
EC50 [16]: 16 nM
IC50 [17]: 37 nM
